The record followed here is patent US20130303509A1, “NAMPT INHIBITORS” (AbbVie Inc., priority 2012, published 2013).

This test has as its system PC3 cells. Nature of the test: NAMPT Cell Proliferation Assay. The test is classed as cell-based. To be noted: Homo sapiens, PC-3, 120 h, 5 days incubation, cell viability by Cell Titer Glo. The method, boiled down: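 Seeded at 500 cells/well in RPMI with 10% heat-inactivated FBS and left to attach overnight at 37° C, 5% CO2. Compounds were added as 10-fold dilutions […] for 5 days, then viability was read by CellTiter-Glo. IC50s came from sigmoidal fits of percent inhibition.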
(In ATP-based viability assays light output follows the ATP content of the culture.)

SMILES strings stand for the structures.

The term IC50 denotes the concentration needed to halve the response being measured.

`Cc1ccc(C(=O)N2CCC(c3ccc(NC(=O)C4CN(c5cccnc5C)C4)cc3)CC2)s1` [Example 186, 1-(2-methylpyridin-3-yl)-N-(4-{1-[(5-methylthiophen-2-yl)carbonyl]piperidin-4-yl}phenyl)azetidine-3-carboxamide] displayed an IC50 of 627 nM.
The molecule `Cc1ncccc1N1CC(C(=O)Nc2ccc(C3CCN(C(=O)c4cccs4)CC3)cc2)C1` [Example 187, 1-(2-methylpyridin-3-yl)-N-{4-[1-(thiophen-2-ylcarbonyl)piperidin-4-yl]phenyl}azetidine-3-carboxamide] had an IC50 of 20.6 nM.
The value for `Cc1ncccc1N1CC(C(=O)Nc2ccc(C3CCN(C(=O)c4cccn4C)CC3)cc2)C1` [Example 188, 1-(2-methylpyridin-3-yl)-N-(4-{1-[(1-methyl-1H-pyrrol-2-yl)carbonyl]piperidin-4-yl}phenyl)azetidine-3-carboxamide] was 22.4 nM; that for `Cc1ncccc1N1CC(C(=O)Nc2ccc(C3CCN(C(=O)c4ccco4)CC3)cc2)C1` [Example 189, N-{4-[1-(furan-2-ylcarbonyl)piperidin-4-yl]phenyl}-1-(2-methylpyridin-3-yl)azetidine-3-carboxamide] was 14.6 nM.
Under `Cc1ncccc1N1CC(C(=O)Nc2ccc(C3CCN(C(=O)CCN4CCCCC4)CC3)cc2)C1` [Example 190, 1-(2-methylpyridin-3-yl)-N-(4-{1-[3-(piperidin-1-yl)propanoyl]piperidin-4-yl}phenyl)azetidine-3-carboxamide] stands 694 nM.
The value for `CCOCC(=O)N1CCC(c2ccc(NC(=O)C3CN(c4cccnc4C)C3)cc2)CC1` [Example 191, N-{4-[1-(ethoxyacetyl)piperidin-4-yl]phenyl}-1-(2-methylpyridin-3-yl)azetidine-3-carboxamide] was 677 nM; that for `Cc1ncccc1N1CC(C(=O)Nc2ccc(C3CCN(C(=O)CC(C)(C)C)CC3)cc2)C1` [Example 192, N-{4-[1-(3,3-dimethylbutanoyl)piperidin-4-yl]phenyl}-1-(2-methylpyridin-3-yl)azetidine-3-carboxamide] was 69.3 nM; that for `CCC(C)(C)C(=O)N1CCC(c2ccc(NC(=O)C3CN(c4cccnc4C)C3)cc2)CC1` [Example 193, N-{4-[1-(2,2-dimethylbutanoyl)piperidin-4-yl]phenyl}-1-(2-methylpyridin-3-yl)azetidine-3-carboxamide] was 71 nM.
`CCCC(=O)N1CCC(c2ccc(NC(=O)C3CN(c4cccnc4C)C3)cc2)CC1` [Example 194, N-[4-(1-butanoylpiperidin-4-yl)phenyl]-1-(2-methylpyridin-3-yl)azetidine-3-carboxamide] registered an IC50 of 124 nM.
Consider `COCC(=O)N1CCC(c2ccc(NC(=O)C3CN(c4cccnc4C)C3)cc2)CC1` [Example 195, N-{4-[1-(methoxyacetyl)piperidin-4-yl]phenyl}-1-(2-methylpyridin-3-yl)azetidine-3-carboxamide], for which the midpoint of inhibition, the IC50, lay at 701 nM.
Consider `Cc1ncccc1N1CC(C(=O)Nc2ccc(C3CCN(C(=O)C4CCCCC4)CC3)cc2)C1` [Example 196, N-{4-[1-(cyclohexylcarbonyl)piperidin-4-yl]phenyl}-1-(2-methylpyridin-3-yl)azetidine-3-carboxamide], for which the IC50 is 111 nM.
`Cc1ncccc1N1CC(C(=O)Nc2ccc(C3CCN(C(=O)CC(C)C)CC3)cc2)C1` [Example 197, N-{4-[1-(3-methylbutanoyl)piperidin-4-yl]phenyl}-1-(2-methylpyridin-3-yl)azetidine-3-carboxamide] came in with an IC50 of 103 nM.
As to `Cc1ncccc1N1CC(C(=O)Nc2ccc(C3CCN(C(=O)C(C)C(C)C)CC3)cc2)C1` (stereo not drawn) [Example 198, N-{4-[1-(2,3-dimethylbutanoyl)piperidin-4-yl]phenyl}-1-(2-methylpyridin-3-yl)azetidine-3-carboxamide], the IC50 is 71.6 nM.
Under `O=C(Nc1ccc(OC2CN(C(=O)c3ccc(F)cc3)C2)cc1)C1CN(c2ccnnc2)C1` [Example 199, N-(4-{[1-(4-fluorobenzoyl)azetidin-3-yl]oxy}phenyl)-1-(pyridazin-4-yl)azetidine-3-carboxamide] stands 97.4 nM.
For the molecule `O=C(Nc1ccc(OC2CN(C(=O)c3ccc(F)cc3F)C2)cc1)C1CN(c2ccnnc2)C1` [Example 200, N-(4-{[1-(2,4-difluorobenzoyl)azetidin-3-yl]oxy}phenyl)-1-(pyridazin-4-yl)azetidine-3-carboxamide], half-maximal inhibition (IC50) was put at 71.9 nM.
Regarding `O=C(Nc1ccc(OC2CN(C(=O)C(F)(F)c3ccccc3)C2)cc1)C1CN(c2ccnnc2)C1` [Example 201, N-[4-({1-[difluoro(phenyl)acetyl]azetidin-3-yl}oxy)phenyl]-1-(pyridazin-4-yl)azetidine-3-carboxamide], half-maximal inhibition (IC50) was put at 60.9 nM.
On to `O=C(Nc1ccc(OC2CN(C(=O)C3CCC(F)(F)CC3)C2)cc1)C1CN(c2ccnnc2)C1` [Example 202, N-[4-({1-[(4,4-difluorocyclohexyl)carbonyl]azetidin-3-yl}oxy)phenyl]-1-(pyridazin-4-yl)azetidine-3-carboxamide], for which the IC50 was determined as 168 nM.
The value for `O=C(Nc1ccc(OC2CN(C(=O)Cc3ccc(F)cc3)C2)cc1)C1CN(c2ccnnc2)C1` [Example 203, N-[4-({1-[(4-fluorophenyl)acetyl]azetidin-3-yl}oxy)phenyl]-1-(pyridazin-4-yl)azetidine-3-carboxamide] was 606 nM; that for `O=C(Nc1ccc(C2CCN(C(=O)CC3CCCC3)CC2)cc1)[C@H]1CCN(c2cccnc2)C1` [Example 204, (3S)—N-{4-[1-(cyclopentylacetyl)piperidin-4-yl]phenyl}-1-(pyridin-3-yl)pyrrolidine-3-carboxamide] was 24.5 nM.
Under `O=C(Nc1ccc(OC2CN(C(=O)c3ccc(C(F)(F)F)cc3)C2)cc1)C1CN(c2ccnnc2)C1` [Example 205, 1-(pyridazin-4-yl)-N-[4-({1-[4-(trifluoromethyl)benzoyl]azetidin-3-yl}oxy)phenyl]azetidine-3-carboxamide] stands 38.7 nM; under `O=C(Nc1ccc(OC2CN(C(=O)c3ccccc3)C2)cc1)C1CN(c2ccnnc2)C1` [Example 206, N-{4-[(1-benzoylazetidin-3-yl)oxy]phenyl}-1-(pyridazin-4-yl)azetidine-3-carboxamide], 67.4 nM.
`CC(C)(O)C(=O)N1CC(Oc2ccc(NC(=O)C3CN(c4ccnnc4)C3)cc2)C1` [Example 207, N-(4-{[1-(2-hydroxy-2-methylpropanoyl)azetidin-3-yl]oxy}phenyl)-1-(pyridazin-4-yl)azetidine-3-carboxamide] came in with an IC50 of 671 nM.
`O=C(Nc1ccc(OC2CN(C(=O)C3CCOC3)C2)cc1)C1CN(c2ccnnc2)C1` (stereo not drawn) [Example 208, 1-(pyridazin-4-yl)-N-(4-{[1-(tetrahydrofuran-3-ylcarbonyl)azetidin-3-yl]oxy}phenyl)azetidine-3-carboxamide]: the IC50 is 593 nM.
In the case of `O=C(Nc1ccc(OC2CN(C(=O)c3ccoc3)C2)cc1)C1CN(c2ccnnc2)C1` [Example 209, N-(4-{[1-(furan-3-ylcarbonyl)azetidin-3-yl]oxy}phenyl)-1-(pyridazin-4-yl)azetidine-3-carboxamide], the IC50 was found to be 81.6 nM.
In turn, `CCCCC(=O)N1CC(Oc2ccc(NC(=O)C3CN(c4ccnnc4)C3)cc2)C1` [Example 210, N-{4-[(1-pentanoylazetidin-3-yl)oxy]phenyl}-1-(pyridazin-4-yl)azetidine-3-carboxamide] showed an IC50 of 62.7 nM.
The value for `O=C(Nc1ccc(OC2CCN(C(=O)c3ccccc3Cl)CC2)cc1)C1CN(c2cccnn2)C1` [Example 211, N-(4-{[1-(2-chlorobenzoyl)piperidin-4-yl]oxy}phenyl)-1-(pyridazin-3-yl)azetidine-3-carboxamide] was 5.94 nM; that for `CC[C@H](C)C(=O)N1CCC(Oc2ccc(NC(=O)C3CN(c4cccnn4)C3)cc2)CC1` [Example 212, N-[4-({1-[(2S)-2-methylbutanoyl]piperidin-4-yl}oxy)phenyl]-1-(pyridazin-3-yl)azetidine-3-carboxamide] was 5.79 nM; that for `O=C(Nc1ccc(OC2CCN(C(=O)c3nccs3)CC2)cc1)C1CN(c2cccnn2)C1` [Example 213, 1-(pyridazin-3-yl)-N-(4-{[1-(1,3-thiazol-2-ylcarbonyl)piperidin-4-yl]oxy}phenyl)azetidine-3-carboxamide] was 6.88 nM.
Molecule `O=C(Nc1ccc(OC2CCN(C(=O)C3CCOCC3)CC2)cc1)C1CN(c2cccnn2)C1` [Example 214, 1-(pyridazin-3-yl)-N-(4-{[1-(tetrahydro-2H-pyran-4-ylcarbonyl)piperidin-4-yl]oxy}phenyl)azetidine-3-carboxamide] gave an IC50 of 9.09 nM.
On to `O=C(Nc1ccc(OC2CCN(C(=O)C(F)(F)c3ccccc3)CC2)cc1)C1CN(c2cccnn2)C1` [Example 215, N-[4-({1-[difluoro(phenyl)acetyl]piperidin-4-yl}oxy)phenyl]-1-(pyridazin-3-yl)azetidine-3-carboxamide], for which it took 6.95 nM to reach half-maximal inhibition (IC50).
Under `O=C(Nc1ccc(OC2CCN(C(=O)C3CCC(F)(F)CC3)CC2)cc1)C1CN(c2cccnn2)C1` [Example 216, N-[4-({1-[(4,4-difluorocyclohexyl)carbonyl]piperidin-4-yl}oxy)phenyl]-1-(pyridazin-3-yl)azetidine-3-carboxamide] stands 5.99 nM; under `CC(C)(C(=O)N1CCC(Oc2ccc(NC(=O)C3CN(c4cccnn4)C3)cc2)CC1)c1ccccc1` [Example 217, N-(4-{[1-(2-methyl-2-phenylpropanoyl)piperidin-4-yl]oxy}phenyl)-1-(pyridazin-3-yl)azetidine-3-carboxamide], 2.55 nM.
`O=C(Nc1ccc(OC2CCN(C(=O)c3cscn3)CC2)cc1)C1CN(c2cccnn2)C1` [Example 218, 1-(pyridazin-3-yl)-N-(4-{[1-(1,3-thiazol-4-ylcarbonyl)piperidin-4-yl]oxy}phenyl)azetidine-3-carboxamide] had an IC50 of 8.86 nM.
